Patent US8815858B2, “Heterocyclic flaviviridae virus inhibitors” (Gilead Sciences, Inc., priority 2010, dated 2014)

tested on: HCV replicon (1B Replicon); experiment: HCV replicon assay, inhibition of viral replication (luciferase); type: cell-based; settings: Hepatitis C virus, 72 h; 10 uM compound; human hepatoma Huh-7 HCV replicon cells; 3 days incubation; luminescence; read-out: % inh at 10 uM (1B Replicon)
Procedure: The anti-HCV activity of the compounds of this invention was tested in a human hepatoma Huh-7 cell line harboring a HCV replicon. The assay comprised the following steps:
Serial dilution was performed in 100% DMSO in a 384-well plate. A solution containing a compound at 225-fold concentration of the starting final serial dilution concentration was prepared in 100% DMSO and 15 uL added to the pre-specified wells in column 3 or 13 of a polypropylene 384-well plate. The rest of the 384-well plate was filled with 10 uL 100% DMSO except for columns 23 and 24, where 10 uL of 500 uM a HCV protease inhibitor (ITMN-191) in 100% DMSO was added. The HCV protease inhibitor was used a control of 100% inhibition of HCV replication. The plate was then placed on a Biomek FX Workstation to start the serial dilution. The serial dilution was performed for ten cycles of 3-fold dilution from column 3 to 12 or from column 13 to 22.
To each well of a black polypropylene 384-well plate, 90 μL of cell media containing 1600 suspended Huh-7 HCV replicon cells was added with a Biotek uFlow Workstation. A volume of 0.4 μL of the compound solution was transferred from the serial dilution plate to the cell culture plate on a Biomek FX Workstation. The DMSO concentration in the final assay condition was 0.44%. The plates were incubated for 3 days at 37° C. with 5% CO2 and 85% humidity.
b) Assessment of inhibition of viral replication: The calcein-PBS solution in the 384-well cell culture plate was aspirated with a Biotek EL405 plate-washer. A volume of 20 μL of Dual-Glo luciferase buffer (Promega, Dual-Glo Luciferase Assay Reagent, cat. #E298B) was added to each well of the plate with a Biotek uFlow Workstation. The plate was incubated for 10 minutes at room temperature. A volume of 20 μL of a solution containing 1:100 mixture of Dual-Glo Stop & Glo substrate (Promega, Dual-Glo Luciferase Assay Reagent, cat. #E313B) and Dual-Glo Stop & Glo buffer (Promega, Dual-Glo Luciferase Assay Reagent, cat. #E314B) was then added to each well of the plate with a Biotek uFlow Workstation. The plate was incubated at room temperature for 10 minutes before the luminescence signal was measured with a Perkin Elmer Envision Plate Reader.
The percent cytotoxicity was determined by calcein AM conversion to fluorescent product. The average fluorescent signal from the DMSO control wells were defined as 100% nontoxic. The individual fluorescent signal from testing compound treated well was divided by the average signal from DMSO control wells and then multiplied by 100% to get the percent viability. The percent anti-HCV replication activity was determined by the luminescence signal from the testing well compared to DMSO controls wells. The background signal was determined by the average luminescence signal from the HCV protease inhibitor treated wells and was subtracted from the signal from the testing wells as well as the DMSO control wells. Following 3-fold serial dilutions, the EC50 and CC50 values were calculated by fitting % inhibition at each concentration to the following equation: % inhibition=100%/[(EC50/[I])^b+1]
% inhibition values at any specific concentration, for example 10 μM, can also be derived from the formula above.

| SMILES | inhibition at 10 µM [%] |
| --- | --- |
| COc1ccc(-c2nnc(Cn3cnc4c(C(N)=O)c(-c5ccccc5F)nc-4c3)s2)c(C(F)(F)F)c1 | 36.6 |
| COc1ccc(-c2nnc(Cn3cnc4c(C#N)c(-c5ccccc5F)nc-4c3)s2)c(C(F)(F)F)c1 | 99.9 |
| Fc1ccccc1-c1cc2ccn(Cc3ccc(-c4ccc(C(F)(F)F)cc4C(F)(F)F)nn3)nc-2n1 | 97.4 |
| Fc1ccccc1-c1cc2ccn(Cc3cc(-c4ccc(C(F)(F)F)cc4C(F)(F)F)no3)nc-2n1 | 77 |
| COc1ccc(-c2nnc(Cn3ccc4cc(-c5ccccc5F)nc-4n3)s2)c(C(F)(F)F)c1 | 98.1 |
| COc1ccc(-c2nnc(Cn3cnc4c(Cl)c(-c5ccccc5F)nc-4c3)s2)c(C(F)(F)F)c1 | 100 |
| COc1ccc(-c2nnc(Cn3cnc4cc(-c5ccccc5F)nc-4c3)s2)c(C(F)(F)F)c1 | 100 |
| COc1ccc(-c2nnc(Cn3cnc4c(C#Cc5cncnc5)c(-c5ccccc5F)nc-4c3)s2)c(C(F)(F)F)c1 | 97.8 |
| COc1ccc(-c2nnc(Cn3cnc4c(Br)c(-c5ccccc5F)nc-4c3)s2)c(C(F)(F)F)c1 | 100 |
| Fc1ccccc1-c1cc2ncn(Cc3nnc(-c4ccc(C(F)(F)F)cc4C(F)(F)F)s3)cc-2n1 | 100 |
| Fc1ccccc1-c1cc2ncn(Cc3ccc(-c4ccc(C(F)(F)F)cc4C(F)(F)F)nn3)cc-2n1 | 100 |
| Fc1ccccc1-c1cc2ncn(Cc3cc(-c4ccc(C(F)(F)F)cc4C(F)(F)F)no3)cc-2n1 | 99.6 |
